In US8518876B2, “Composition for long-acting peptide analogs” (Pharmaln Corporation, priority 2007, dated 2013) one finds Kd data, which are given here for 1 molecule.

The assay in a line: Binding of C12TerA to hydrophobic polymeric carrier (Scatchard plot, bound/free by HPLC). Conditions: carrier 2.5 mg/tube, PBS, incubated overnight; estimated, plot not completely linear. An excerpt:
FIG. 17: This figure is a Scatchard plot showing the binding of C12TerA to polymeric carrier containing a hydrophobic group disclosed in U.S. patent application Ser. No. 11/613,183, which is hereby incorporated by reference. The carrier also referred to as PGC-HC18 or 20PLPEG555-C18 is made up of polylysine of 15-30 kDa where 55% of the amino group is covalently modified to contain 5 kDa methoxypolyethylene glycol attached by through succinate linker and the remaining 45% of the amino group is amide bonded to stearic acid carboxyl group all disclosed in U.S. patent application Ser. No. 11/613,183. […] The filtrate containing […] C12TerA was quantified by HPLC. […] It should be noted that some C12TerA can form micelle and may be counted as bound due to the analytical techniques used.
FIG. 17 is a Scatchard plot showing the binding of C12TerA to polymeric carrier containing a hydrophobic group disclosed in U.S. patent application Ser. No. 11/613,183, which is hereby incorporated by reference. […] The filtrate containing […] C12TerA was quantified by HPLC. […] It should be noted that some C12TerA can form micelle and may be counted as bound due to the analytical techniques used.
The amount of C12TerA capable of being bound to a carrier was determined by varying the amount of the analog in the presence of 10 mg/ml hydrophobic group containing carrier PGC-HC18 or 20PLPEG555-C18. […]

Where a SMILES comes first, the peptide text is derived from it. Bridges are numbered along the chain shown (N, C = ends). The star is where a group is joined. Lauroyl = CCCCCCCCCCCC(=O)*

In general, Kd refers to the constant that tells how readily two partners part at equilibrium. As for `CCCCCCCCCCCC(=O)NCC(=O)NCC(=O)NCC(=O)N[C@H]1CSSC[C@@H](C(=O)N2CCC[C@H]2C(=O)N[C@@H](CCCCN)C(=O)NCC(N)=O)NC(=O)[C@H](CC(N)=O)NC(=O)[C@H](CCC(N)=O)NC(=O)[C@H](Cc2ccccc2)NC(=O)[C@H](Cc2ccc(O)cc2)NC1=O` [C12TerA, CH3(CH2)10CO-Gly-Gly-Gly-Cys-Tyr-Phe-Gln-Asn-Cys-Pro-Lys-Gly-NH2] (Lauroyl-GGGCYFQNCPKG-NH2; disulfide 4-9), the Kd was 1000 to 5000 nM.
